Data from patent US20220047507A1, “MELFLUFEN DOSAGE REGIMENS FOR CANCER” (ONCOPEPTIDES AB, priority 2015, published 2022).
Values joined by “and” are separate entries in the source; they are usually repeats but may differ in a detail not shown here. Equal values may be shown once.

What was measured:
[1] = system: relapsed-refractory multiple myeloma (RRMM) patients; test: Safety in patients with RRMM, Example 2a; format: in vivo, human; conditions: 40 mg
Protocol: (§1) Example 2: An open label single arm extension on the dose of 40 mg over 30 minutes of Example 1. Intravenous melflufen was administered over 30 minutes on Day 1 of a 21-day cycle or 28-day cycle (in combination with 40 mg dexamethasone (oral or intravenous) treatment on Days 1, 8 and 15) for at least 2 cycles, and up to the stated number of cycles. The cycle length was extended during the Example 2 Clinical Trial from 21 to 28 days per a protocol amendment to allow for a better recovery of neutrophils and thrombocytes before a new cycle is initiated.
(§2) Example 2a results are from a data cut-off of time point (a). Example 2b results are from a data cut-off of time point (bi) for the efficacy data, which was approximately 12 months after time point (a); and from a data cut-off of time point (bii) for the safety data, which was approximately 10 months after time point (a).
As mentioned above, by the data cut-off for Example 2a 38 patients had been dosed with 162 doses of melflufen hydrochloride 40 mg over 30 minutes. Median number of cycles was 3 (1-13) and median duration of treatment was 13 weeks (2-51 weeks). The dose intensity was 96% (77-100).

[2] = system: relapsed-refractory multiple myeloma (RRMM) patients; test: Efficacy in patients with RRMM, Example 2b, time point (bi); format: in vivo, human
Protocol: as §1, §2
By the data cut-off point (bi), […] (the 40 mg dosage excludes the mass of the salt component) administered over 30 minutes every 3 weeks (21 days) in combination with weekly dexamethasone (day 1, 8 and 15) or every 4 weeks (28 days) in combination with weekly dexamethasone (day 1, 8, 15 and 22).
[…] 10 patients were not evaluable for efficacy evaluation due to rapid early progression (8), or early termination due to adverse events (2).

[3] = system: relapsed-refractory multiple myeloma (RRMM) patients; test: Safety in patients with RRMM, Example 2b, time point (bii); format: in vivo, human; conditions: of the 57 patients in the ongoing melflufen study
MM cells = conditions: in vitro; cited from earlier work
[4] = Evaluable ≥ 2 cycles, n 30, listed as Melflufen
[5] = Pomalidomide refractory, Example 2b, efficacy evaluable N = 29
[6] = Pomalidomide refractory, Example 2b, treated patients N = 39
[7] = Triple refractory (2 PI/ImiD + 1 ImiD/PI), Example 2b, treated patients N = 39
[8] = refractory status Alkylator, Example 2b, treated patients N = 39
[9] = refractory status Cyclophosphamide, Example 2b, efficacy evaluable N = 29
[10] = refractory status Cyclophosphamide, Example 2b, treated patients N = 39
[11] = refractory status High dose melphalan, Example 2b, efficacy evaluable N = 29
[12] = refractory status High dose melphalan, Example 2b, treated patients N = 39
[13] = refractory status IMiD, Example 2b, treated patients N = 39
[14] = refractory status Low dose melphalan, Example 2b, efficacy evaluable N = 29
[15] = refractory status Low dose melphalan, Example 2b, treated patients N = 39
[16] = refractory status None, Example 2b, efficacy evaluable N = 29
[17] = refractory status None, Example 2b, treated patients N = 39
[18] = refractory status PI + IMiD + Alkylator, Example 2b, efficacy evaluable N = 29
[19] = refractory status PI + IMiD + Alkylator, Example 2b, treated patients N = 39
[20] = refractory status PI + IMiD, Example 2b, treated patients N = 39
[21] = refractory status PI, Example 2b, treated patients N = 39

For `CCOC(=O)[C@H](Cc1ccc(F)cc1)NC(=O)[C@@H](N)Cc1ccc(N(CCCl)CCCl)cc1.Cl` [melflufen, L-Melphalanyl-4-fluoro-L-phenylalanine ethyl ester], the “Serious TEAE related to melflufen: Diarrhoea” value ([1]; Example 2a) was “(3) %”, the “Serious TEAE related to melflufen: Diarrhoea, number of patients” value ([1]; Example 2a) was 1 and the “Serious TEAE related to melflufen: Escherichia coli sepsis” value ([1]; Example 2a) was “(3) %”. For the same molecule, the “Serious TEAE related to melflufen: Escherichia coli sepsis, number of patients” value ([1]; Example 2a) was 1, the “Serious TEAE related to melflufen: Febrile Neutropenia” value ([1]; Example 2a) was “(5) %” and the “Serious TEAE related to melflufen: Febrile Neutropenia, number of patients” value ([1]; Example 2a) was 2. For the same molecule, the “Serious TEAE related to melflufen: Neutropenia” value ([1]; Example 2a) was “(3) %”, the “Serious TEAE related to melflufen: Neutropenia, number of patients” value ([1]; Example 2a) was 1 and the “Serious TEAE related to melflufen: Pneumonia” value ([1]; Example 2a) was “(8) %”. For the same molecule, the “Serious TEAE related to melflufen: Pneumonia, number of patients” value ([1]; Example 2a) was 3, the “Serious TEAE related to melflufen: Pyrexia” value ([1]; Example 2a) was “(5) %” and the “Serious TEAE related to melflufen: Pyrexia, number of patients” value ([1]; Example 2a) was 2. For the same molecule, the “Anemia, treatment related ≥grade 3” value ([1]; Example 2a N = 38) was “(40) %”, the “Any treatment-related grade 3 and/or grade 4, grade 4” value ([1]; Example 2a N = 38) was “(50) %” and the “Any treatment-related grade 3 and/or grade 4, ≥grade 3” value ([1]; Example 2a N = 38) was 87%. For the same molecule, the “Asthenia, treatment related ≥grade 3” value ([1]; Example 2a N = 38) was “(5) %”, the “Blood and lymphatic system disorders, treatment related grade 4” value ([1]; Example 2a N = 38) was “(47) %” and the “Blood and lymphatic system disorders, treatment related ≥grade 3” value ([1]; Example 2a N = 38) was “(76) %”. The “Fatigue, treatment related ≥grade 3” value ([1]; Example 2a N = 38) was “(5) %”, the “Febrile neutropenia, treatment related ≥grade 3” value ([1]; Example 2a N = 38) was “(5) %” and the “General disorders and administration site conditions, treatment related ≥grade 3” value ([1]; Example 2a N = 38) was “(18) %”. For the same molecule, the “Hyperglycemia, treatment related grade 4” value ([1]; Example 2a N = 38) was “(3) %”, the “Hyperglycemia, treatment related ≥grade 3” value ([1]; Example 2a N = 38) was “(8) %” and the “Infections and infestations, treatment related ≥grade 3” value ([1]; Example 2a N = 38) was “(8) %”. For the same molecule, the “Investigations, treatment related ≥grade 3” value ([1]; Example 2a N = 38) was “(10) %”, the “Leukopenia, treatment related grade 4” value ([1]; Example 2a N = 38) was “(13) %” and the “Leukopenia, treatment related ≥grade 3” value ([1]; Example 2a N = 38) was “(34) %”. The “Metabolism and nutrition disorders, treatment related grade 4” value ([1]; Example 2a N = 38) was “(3) %”, the “Metabolism and nutrition disorders, treatment related ≥grade 3” value ([1]; Example 2a N = 38) was “(8) %” and the “Neutropenia, treatment related grade 4” value ([1]; Example 2a N = 38) was “(26) %”. For the same molecule, the “Neutropenia, treatment related ≥grade 3” value ([1]; Example 2a N = 38) was “(53) %”, the “Neutrophil count decreased, treatment related ≥grade 3” value ([1]; Example 2a N = 38) was “(10) %” and the “Pneumonia, treatment related ≥grade 3” value ([1]; Example 2a N = 38) was “(8) %”. For the same molecule, the “Pyrexia, treatment related ≥grade 3” value ([1]; Example 2a N = 38) was “(5) %”, the “Thrombocytopenia, treatment related grade 4” value ([1]; Example 2a N = 38) was “(34) %” and the “Thrombocytopenia, treatment related ≥grade 3” value ([1]; Example 2a N = 38) was “(68) %”. For the same molecule, the “Any treatment-related grade 3 and/or grade 4, ≥grade 3” value ([1]; Example 2a N = 38, listed as melflufen hydrochloride) was “(87) %”, the “patients with Serious TEAEs” value ([1]; Example 2a, 38 patients) was 34% and the “patients with TEAEs leading to death” value ([1]; Example 2a, 38 patients) was 8%. For the same molecule, the “patients with TEAEs leading to dose reduction of melflufen” value ([1]; Example 2a, 38 patients) was 18%, the “patients with grade 3 or 4 TEAEs” value ([1]; Example 2a, 38 patients) was 90% and the “patients with treatment-related Serious TEAEs” value ([1]; Example 2a, 38 patients) was 21%. The “CRR (≥MR)” value ([2]; Antibody refractory, Example 2b, efficacy evaluable N = 29) was “(50)+ %”, the “CRR (≥MR)” value ([2]; Antibody refractory, Example 2b, treated patients N = 39) was “(33) %” and the “Clinical Benefit Rate (CBR)” value ([2]; Evaluable ≥ 1 cycle, n 40) was 50%. The “Minimal Response (MR), patients” value ([2]; Evaluable ≥ 1 cycle, n 40) was 8, the “Overall Response Rate (ORR)” value ([2]; Evaluable ≥ 1 cycle, n 40) was 30% and the “Positive Response (PR), patients” value ([2]; Evaluable ≥ 1 cycle, n 40) was 9. The “Progressive Disease (PD), patients” value ([2]; Evaluable ≥ 1 cycle, n 40) was 9, the “Stable Disease (SD), patients” value ([2]; Evaluable ≥ 1 cycle, n 40) was 11 and the “Very Good Positive Response (PR), patients” value (from here on “Very Good Positive Response”) ([2]; Evaluable ≥ 1 cycle, n 40) was 3. The “Clinical Benefit Rate (CBR)” value ([2]; Evaluable ≥ 2 cycles, n 30) was 56% and 63%, the “Overall Response Rate (ORR)” value ([2]; Evaluable ≥ 2 cycles, n 30) was 41% and 40% and the “Positive Response (PR), patients” value ([2]; Evaluable ≥ 2 cycles, n 30) was 9. The “Progressive Disease (PD), patients” value ([2]; Evaluable ≥ 2 cycles, n 30) was 1, the “Stable Disease (SD), patients” value ([2]; Evaluable ≥ 2 cycles, n 30) was 10 and the “Very Good Positive Response” value ([2]; Evaluable ≥ 2 cycles, n 30, 40 mg over 30 min + dexamethasone) was 2. For the same molecule, the “Very Good Positive Response” value ([2]; Evaluable ≥ 2 cycles, n 30, 40 mg over 30 min + dexamethasone, listed as Melflufen) was 3, the “Clinical Benefit Rate (CBR)” value [2, 4] was 63% and the “Minimal Response (MR), patients” value [2, 4] was 7. For the same molecule, the “Overall Response Rate (ORR)” value [2, 4] was 40%, the “median duration of response (DOR)” value ([2]; Example 2b, 11 events in 12 responding patients) was 7.7 months and the “median progression free survival (PFS)” value ([2]; Example 2b, ITT-population (n=40)) was 4.3 months. For the same molecule, the “median progression free survival (PFS)” value ([2]; Example 2b, PP-population (efficacy evaluable, n=30)) was 7.9 months, the “increase in PFS compared to pomalidomide+dexamethasone and carfilzomib” value ([2]; Example 2b, efficacy evaluable population) was “around 4 months” and the “CRR (≥MR)” value [2, 5] was “(55) %”. For the same molecule, the “ORR (≥PR)” value [2, 5] was “(36) %”, the “CRR (≥MR)” value [2, 6] was “(44) %” and the “ORR (≥PR)” value [2, 6] was “(25) %”. The “CRR (≥MR)” value ([2]; Triple refractory (2 PI/ImiD + 1 ImiD/PI), Example 2b, efficacy evaluable N = 29) was “(70) %”, the “CRR (≥MR)” value [2, 7] was “(44) %” and the “ORR (≥PR)” value [2, 7] was “(25) %”. For the same molecule, the “best response of minimal response (MR) or better, n patients” value ([2]; of 30 evaluable) was 15 and 19, the “partial response (PR) or better, n patients” value ([2]; of 30 evaluable) was 12 and the “best response of PR or better, n patients” value ([2]; of the 8 patients refractory to an alkylator as their last line of treatment) was 5. The “CRR (≥MR)” value ([2]; refractory status Alkylator, Example 2b, efficacy evaluable N = 29) was “(73) %”, the “CRR (≥MR)” value [2, 8] was “(55) %” and the “ORR (≥PR)” value [2, 8] was “(36) %”. For the same molecule, the “CRR (≥MR)” value [2, 9] was “(80) %”, the “ORR (≥PR)” value [2, 9] was “(60) %” and the “CRR (≥MR)” value [2, 10] was “(53) %”. The “ORR (≥PR)” value [2, 10] was “(40) %”, the “CRR (≥MR)” value [2, 11] was “(100) %” and the “ORR (≥PR)” value [2, 11] was “(67) %”. For the same molecule, the “CRR (≥MR)” value [2, 12] was “(100) %”, the “ORR (≥PR)” value [2, 12] was “(33) %” and the “CRR (≥MR)” value ([2]; refractory status IMiD, Example 2b, efficacy evaluable N = 29) was “(63) %”. The “CRR (≥MR)” value [2, 13] was “(47) %”, the “ORR (≥PR)” value [2, 13] was “(28) %” and the “CRR (≥MR)” value [2, 14] was “(60) %”. For the same molecule, the “ORR (≥PR)” value [2, 14] was “(40) %”, the “CRR (≥MR)” value [2, 15] was “(67) %” and the “ORR (≥PR)” value [2, 15] was “(33) %”. For the same molecule, the “CRR (≥MR)” value [2, 16] was “(100) %”, the “ORR (≥PR)” value [2, 16] was “(100) %” and the “CRR (≥MR)” value [2, 17] was “(100) %”. For the same molecule, the “ORR (≥PR)” value [2, 17] was “(100) %”, the “CRR (≥MR)” value [2, 18] was “(44) %” and the “ORR (≥PR)” value [2, 18] was “(33) %”. The “CRR (≥MR)” value [2, 19] was “(40) %”, the “ORR (≥PR)” value [2, 19] was “(20) %” and the “CRR (≥MR)” value ([2]; refractory status PI + IMiD, Example 2b, efficacy evaluable N = 29) was “(59) %”. For the same molecule, the “CRR (≥MR)” value [2, 20] was “(46) %”, the “ORR (≥PR)” value [2, 20] was “(25) %” and the “CRR (≥MR)” value ([2]; refractory status PI, Example 2b, efficacy evaluable N = 29) was “(63) %”. The “CRR (≥MR)” value [2, 21] was “(50) %”, the “ORR (≥PR)” value [2, 21] was “(25) %” and the “fatal events while on treatment or within 30 days of last dose” value [3] was 11%. For the same molecule, the “intracellular exposure (as AUC) of alkylating agents compared to an equimolar dosage of melphalan” value (MM cells) was no less than 20 fold.
